Read-outs that look alike come from different tables or passages of the source.
Experiments:
in vivo = assay: in vivo; design: species or system Sprague-Dawley (SD) rats; settings: Sprague-Dawley, plasma, rat; for concentration at […]: 0.083 h after oral CNP
Method: At each time, 0.5 mL of blood was collected in the heparin sodium tubes. Plasma was separated by centrifugation at 4000 rpm for 10 min and stored below −80 °C until bioanalysis. Oasis PRiME HLB SPE cartridges (1 cc/30 mg, Waters, Milford, MA, USA) were used to process the plasma samples (Supplementary Materials).
The generic layout of instrumentation setup of the LVDI-UHPLC-MS/MS was conducted on a Shimadzu UHPLC system consisting of two LC-20ADXR pumps, a DGU-20A3R degasser, and a CBM-20A controller (Kyoto, Japan) with a SCIEX 4500 QTRAP mass spectrometer mounted with an electron spray ionization (ESI) interface as well as an electronic 6-port/2-channel valve (Foster City, CA, USA). Analyst software package (version 1.6.2, SCIEX) was implemented to control and synchronize the entire system, and also for data acquisition and processing. A single analytical run was fragmented into two phases, namely, loading and elution phases, by switching the electronic valve (Figure 2). At the loading phase, the valve was maintained at A-channel. The specimen aliquot of large volume delivered from the auto-sampler was captured onto a guard column. Meanwhile, the pumps were responsible for delivering the mobile phase at a high flow rate, aiming to dilute the sample solvent, thus facilitating the candidate constituents to concentrate on the pre-guard column. Then, the valve was automatically switched to the B-channel to trigger the elution phase. The trapped components were flushed from the pre-guard column into an analytical column, and underwent multiple reaction monitoring (MRM) analysis on the optimized LC gradients. The detailed information of LVDI-UHPLC-MS/MS analysis for pharmacokinetic and cocktail studies is shown in the Supplementary Materials section.

CYP2C19 = assay: In vitro cocktail CYP450 activity assay in rat liver microsomes, CYP2C19 (omeprazole probe); settings: for IC50 at 15 min: Sprague-Dawley, rat, pooled rat liver microsomes, pH 7.4, probe omeprazole (1.07 µM, in seven-probe cocktail), IC50 CYP2C19, single components, RLM 0.2 mg/mL, triplicate, mean ± SD; for Response (% control) CYP2C19: at the Cmax level in rat plasma, calculated from the dose–response curve
Method: (§1) (OHBUP-[D6]) and 5 nM 4′-hydroxydiclofenac-[^13C6] (OHDIC-[^13C6]) as internal standards (ISs). […]
(§2) standard addition experiments. Each group included four concentration levels. For the PK […]
(§3) The probe compounds, viz. […]
(§4) chosen after incubating all the recruited substrates. In order to assure the linear relationship […]
(§5) The incubation system was also optimized in terms of substrate concentrations. The substrates concentrations of […]

CYP2B6 = assay: In vitro cocktail CYP450 activity assay in rat liver microsomes, CYP2B6 (bupropion probe); settings: for IC50 at 15 min: Sprague-Dawley, rat, pooled rat liver microsomes, pH 7.4, probe bupropion (90 µM, in seven-probe cocktail), IC50 CYP2B6, single components, RLM 0.2 mg/mL, triplicate, mean ± SD
Method: as §1, §2, §3, §4, §5

CYP2C9 = assay: In vitro cocktail CYP450 activity assay in rat liver microsomes, CYP2C9 (tolbutamide probe); settings: for IC50 at 15 min: Sprague-Dawley, rat, pooled rat liver microsomes, pH 7.4, probe tolbutamide (18 µM, in seven-probe cocktail), IC50 CYP2C9, single components, RLM 0.2 mg/mL, triplicate, mean ± SD
Method: as §1, §2, §3, §4, §5

CYP2D6 = assay: in vitro; settings: Sprague-Dawley, rat; for IC50 at 15 min: microsomes, pH 7.4, IC50 CYP2D6
Method: as §1, §2, §3, §4, §5

CYP3A4 = assay: in vitro
Method: as §1, §2, §3, §4, §5

CYP1A2 = biological target: T1, CYP1A2 (Rattus norvegicus, UniProt P04799); assay: In vitro cocktail CYP450 activity assay in rat liver microsomes, CYP1A2 (phenacetin probe); settings: for IC50: IC50 CYP1A2, single components, RLM 0.2 mg/mL, 15 min, triplicate, mean ± SD; for Response (% control) CYP1A2: at the Cmax level in rat plasma, calculated from the dose–response curve
T1 sequence (P04799 1-513): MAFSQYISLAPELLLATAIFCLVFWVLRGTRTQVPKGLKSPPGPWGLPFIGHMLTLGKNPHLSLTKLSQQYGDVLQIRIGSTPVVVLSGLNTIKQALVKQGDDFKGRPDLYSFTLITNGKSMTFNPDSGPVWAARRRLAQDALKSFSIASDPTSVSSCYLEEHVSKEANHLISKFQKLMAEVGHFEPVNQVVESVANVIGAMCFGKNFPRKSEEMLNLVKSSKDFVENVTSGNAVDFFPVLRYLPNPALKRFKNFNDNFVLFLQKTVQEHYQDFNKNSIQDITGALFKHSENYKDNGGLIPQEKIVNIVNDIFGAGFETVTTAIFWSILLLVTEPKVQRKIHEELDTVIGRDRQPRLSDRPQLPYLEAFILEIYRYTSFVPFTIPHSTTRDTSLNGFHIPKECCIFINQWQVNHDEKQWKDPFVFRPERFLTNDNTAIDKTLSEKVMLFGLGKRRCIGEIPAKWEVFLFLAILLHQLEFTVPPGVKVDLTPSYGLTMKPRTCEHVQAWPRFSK
Method: as §1, §2, §3, §4, §5

CYP2E1 [1] = biological target: T2, CYP2E1 (Rattus norvegicus, UniProt P05182); settings: IC50 CYP2E1, single components; RLM 0.2 mg/mL, 15 min, triplicate, mean ± SD
CYP2E1 [2] = biological target: T2, CYP2E1
[3] = at the Cmax level in rat plasma, calculated from the dose–response curve
[4] = Sprague-Dawley, rat, 15 min, pH 7.4

T2 sequence (P05182 whole entry): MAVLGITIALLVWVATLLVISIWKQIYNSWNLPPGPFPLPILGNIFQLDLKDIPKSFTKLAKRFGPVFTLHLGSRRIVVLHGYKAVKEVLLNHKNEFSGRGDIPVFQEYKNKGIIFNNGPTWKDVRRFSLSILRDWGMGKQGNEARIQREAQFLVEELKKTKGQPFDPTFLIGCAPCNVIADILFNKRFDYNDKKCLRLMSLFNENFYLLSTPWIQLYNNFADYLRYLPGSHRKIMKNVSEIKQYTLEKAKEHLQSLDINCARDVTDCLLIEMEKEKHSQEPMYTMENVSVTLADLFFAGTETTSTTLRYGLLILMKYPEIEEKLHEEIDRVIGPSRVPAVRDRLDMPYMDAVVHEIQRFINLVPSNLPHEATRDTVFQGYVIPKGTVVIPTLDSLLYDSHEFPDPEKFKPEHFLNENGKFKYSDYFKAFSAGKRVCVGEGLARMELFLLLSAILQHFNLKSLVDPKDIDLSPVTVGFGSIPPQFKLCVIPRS

## CC(C)=CCC[C@](C)(O[C@@H]1O[C@H](CO)[C@@H](O)[C@H](O)[C@H]1O)[C@H]1CC[C@]2(C)[C@@H]1[C@H](O)C[C@@H]1[C@@]3(C)CC[C@H](O[C@@H]4O[C@H](CO)[C@@H](O)[C@H](O)[C@H]4O[C@@H]4O[C@H](CO)[C@@H](O)[C@H](O)[C@H]4O)C(C)(C)[C@@H]3CC[C@]12C [GRd, ginsenoside Rd]
In vivo
  concentration at […]: 6.63 ± 0.64 ng/mL
In vivo; 0.25 h after oral CNP
  concentration at 0.25 h: 7.13 ± 0.69 ng/mL
In vivo; 0.5 h after oral CNP
  concentration at 0.5 h: 12.5 ± 4.73 ng/mL
In vivo; 1 h after oral CNP
  concentration at 1 h: 13.5 ± 3.67 ng/mL
In vivo; 1.5 h after oral CNP
  concentration at 1.5 h: 12.8 ± 1.79 ng/mL
In vivo; 2 h after oral CNP
  concentration at 2 h: 17.6 ± 5.2 ng/mL
In vivo; 3 h after oral CNP
  concentration at 3 h: 18.7 ± 7.48 ng/mL
In vivo; 4 h after oral CNP
  concentration at 4 h: 25 ± 15.8 ng/mL
In vivo; 6 h after oral CNP
  concentration at 6 h: 24.9 ± 13.1 ng/mL
In vivo; 8 h after oral CNP
  concentration at 8 h: 15.6 ± 5.29 ng/mL
In vivo; 12 h after oral CNP
  concentration at 12 h: 12.4 ± 7.03 ng/mL
In vivo; 24 h after oral CNP
  concentration at 24 h: 2.85 ± 0.67 ng/mL
In vivo; 48 h after oral CNP
  concentration at 48 h: 3.96 ± 0.34 ng/mL
In vivo; 72 h after oral CNP
  concentration at 72 h: 2.32 ± 0.12 ng/mL
In vivo; po, 60 mg/kg
  AUC(0-inf): 619 ± 157 ng·h/mL
  AUC(0-t): 461 ± 117 ng·h/mL
  Cmax: 29.4 ± 10.7 ng/mL
  Tmax: 4.5 ± 1.76 h
  half-life: 42.8 ± 8.84 h
In vivo; po, 60 mg·kg^−1
  concentration at 0.25 h: 9 ± 2.12 ng/mL
  concentration at 0.5 h: 11.5 ± 0.97 ng/mL
  concentration at 1 h: 13.9 ± 4.94 ng/mL
  concentration at 1.5 h: 14.9 ± 3.51 ng/mL
  concentration at 2 h: 19.2 ± 6.71 ng/mL
  concentration at 3 h: 22.3 ± 14.6 ng/mL
  concentration at 4 h: 23.9 ± 12.6 ng/mL
  concentration at 6 h: 26.2 ± 10.4 ng/mL
  concentration at 8 h: 16.7 ± 7.24 ng/mL
  concentration at 12 h: 8.73 ± 3.74 ng/mL
  concentration at 24 h: 3.57 ± 1.4 ng/mL
  concentration at 48 h: 4.15 ± 1.97 ng/mL
  concentration at 72 h: 2.52 ± 0.63 ng/mL
CYP2C19
  IC50 at 15 min: 71.4 ± 14.3 µM
  Response (% control) CYP2C19: 99.95 % control
CYP2B6
  IC50 at 15 min: > 200 µM
CYP2C9
  IC50 at 15 min: 73 ± 3.71 µM
CYP2C9; [3]
  Response (% control) CYP2C9: 99.97 % control
CYP2D6; 15 min, pH 7.4
  Response (% control) CYP2D6: 99.99 % control
CYP2D6
  IC50 at 15 min: 64.8 ± 11.7 µM
CYP3A4; [4]
  Response (% control) CYP3A4: 85.25 % control
CYP3A4; Sprague-Dawley, rat, microsomes, pH 7.4
  IC50 at 15 min: 61.4 ± 14.3 µM
CYP1A2
  IC50: 4.36 ± 2.31 µM
  Response (% control) CYP1A2: 71.33 % control
CYP2E1 [1]
  IC50: 43.46 ± 0.06 µM
CYP2E1 [2]; [3]
  Response (% control) CYP2E1: 98.16 % control

## CC(C)=CCC[C@](C)(O[C@@H]1O[C@H](CO)[C@@H](O)[C@H](O)[C@H]1O)[C@H]1CC[C@]2(C)[C@@H]1[C@H](O)C[C@@H]1[C@@]3(C)CC[C@H](O)C(C)(C)[C@@H]3[C@@H](O[C@@H]3O[C@H](CO)[C@@H](O)[C@H](O)[C@H]3O[C@@H]3O[C@@H](C)[C@H](O)[C@@H](O)[C@H]3O)C[C@]12C [GRe, ginsenoside Re]
In vivo
  concentration at […]: 0.24 ± 0.02 ng/mL
In vivo; 0.25 h after oral CNP
  concentration at 0.25 h: 0.25 ± 0.01 ng/mL
In vivo; 0.5 h after oral CNP
  concentration at 0.5 h: 0.33 ± 0.11 ng/mL
In vivo; 1 h after oral CNP
  concentration at 1 h: 0.24 ± 0.04 ng/mL
In vivo; 1.5 h after oral CNP
  concentration at 1.5 h: 0.24 ± 0.03 ng/mL
In vivo; 2 h after oral CNP
  concentration at 2 h: 0.23 ± 0.02 ng/mL
In vivo; 3 h after oral CNP
  concentration at 3 h: 0.28 ± 0.1 ng/mL
In vivo; 4 h after oral CNP
  concentration at 4 h: 0.28 ± 0.07 ng/mL
In vivo; 6 h after oral CNP
  concentration at 6 h: 0.23 ± 0.03 ng/mL
In vivo; 8 h after oral CNP
  concentration at 8 h: 0.14 ± 0.03 ng/mL
In vivo; po
  half-life: 5.99 ± 3.86 h
In vivo; po, 60 mg/kg
  AUC(0-inf): 2.9 ± 0.6 ng·h/mL
  AUC(0-t): 1.82 ± 0.19 ng·h/mL
  Cmax: 0.29 ± 0.04 ng/mL
  Tmax: 2.6 ± 0.89 h
  half-life: 5.25 ± 2.27 h
In vivo; po, 60 mg·kg^−1
  concentration at 0.25 h: 0.26 ± 0.02 ng/mL
  concentration at 0.5 h: 0.24 ± 0.02 ng/mL
  concentration at 1 h: 0.25 ± 0.02 ng/mL
  concentration at 1.5 h: 0.22 ± 0.02 ng/mL
  concentration at 2 h: 0.21 ± 0.01 ng/mL
  concentration at 3 h: 0.27 ± 0.04 ng/mL
  concentration at 4 h: 0.25 ± 0.05 ng/mL
  concentration at 6 h: 0.24 ± 0.06 ng/mL
  concentration at 8 h: 0.13 ± 0.01 ng/mL
CYP2C19
  IC50 at 15 min: 50.5 ± 15.4 µM
  Response (% control) CYP2C19: 98.36 % control
CYP2B6
  IC50 at 15 min: 39.4 ± 4.81 µM
CYP2B6; [3]
  Response (% control) CYP2B6: 99.64 % control
CYP2C9
  IC50 at 15 min: > 200 µM
CYP2D6
  IC50 at 15 min: > 200 µM
CYP3A4; Sprague-Dawley, rat, microsomes, pH 7.4, IC50 CYP3A4, single components, RLM 0.2 mg/mL, 15 min, triplicate, mean ± SD
  IC50: 75.1 ± 7.24 µM
CYP3A4; [3]
  Response (% control) CYP3A4: 99.99 % control
CYP1A2
  IC50: 94.4 ± 4.52 µM
  Response (% control) CYP1A2: 99.99 % control
CYP2E1 [1]
  IC50: 25.6 ± 9.03 µM
CYP2E1 [2]; [4]
  Response (% control) CYP2E1: 97.35 % control

Reference: publication PMC7076352 (Pharmaceutics, 2020)
